According to ChEMBL document CHEMBL1201862, “PubChem BioAssay data set” (2004):
Values joined by “and” are separate entries in the source; they are usually repeats but may differ in a detail not shown here. Equal values may be shown once. Active and inactive are the calls of the source.

Legend:
[1] = molecular target: Voltage-gated inwardly rectifying potassium channel KCNH2 (Homo sapiens, UniProt Q12809); conditions: Potency;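 note: confirmatory quantitative high-throughput screen measuring inhibition of hERG channel activity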
Chain of Voltage-gated inwardly rectifying potassium channel KCNH2 (Q12809 whole entry): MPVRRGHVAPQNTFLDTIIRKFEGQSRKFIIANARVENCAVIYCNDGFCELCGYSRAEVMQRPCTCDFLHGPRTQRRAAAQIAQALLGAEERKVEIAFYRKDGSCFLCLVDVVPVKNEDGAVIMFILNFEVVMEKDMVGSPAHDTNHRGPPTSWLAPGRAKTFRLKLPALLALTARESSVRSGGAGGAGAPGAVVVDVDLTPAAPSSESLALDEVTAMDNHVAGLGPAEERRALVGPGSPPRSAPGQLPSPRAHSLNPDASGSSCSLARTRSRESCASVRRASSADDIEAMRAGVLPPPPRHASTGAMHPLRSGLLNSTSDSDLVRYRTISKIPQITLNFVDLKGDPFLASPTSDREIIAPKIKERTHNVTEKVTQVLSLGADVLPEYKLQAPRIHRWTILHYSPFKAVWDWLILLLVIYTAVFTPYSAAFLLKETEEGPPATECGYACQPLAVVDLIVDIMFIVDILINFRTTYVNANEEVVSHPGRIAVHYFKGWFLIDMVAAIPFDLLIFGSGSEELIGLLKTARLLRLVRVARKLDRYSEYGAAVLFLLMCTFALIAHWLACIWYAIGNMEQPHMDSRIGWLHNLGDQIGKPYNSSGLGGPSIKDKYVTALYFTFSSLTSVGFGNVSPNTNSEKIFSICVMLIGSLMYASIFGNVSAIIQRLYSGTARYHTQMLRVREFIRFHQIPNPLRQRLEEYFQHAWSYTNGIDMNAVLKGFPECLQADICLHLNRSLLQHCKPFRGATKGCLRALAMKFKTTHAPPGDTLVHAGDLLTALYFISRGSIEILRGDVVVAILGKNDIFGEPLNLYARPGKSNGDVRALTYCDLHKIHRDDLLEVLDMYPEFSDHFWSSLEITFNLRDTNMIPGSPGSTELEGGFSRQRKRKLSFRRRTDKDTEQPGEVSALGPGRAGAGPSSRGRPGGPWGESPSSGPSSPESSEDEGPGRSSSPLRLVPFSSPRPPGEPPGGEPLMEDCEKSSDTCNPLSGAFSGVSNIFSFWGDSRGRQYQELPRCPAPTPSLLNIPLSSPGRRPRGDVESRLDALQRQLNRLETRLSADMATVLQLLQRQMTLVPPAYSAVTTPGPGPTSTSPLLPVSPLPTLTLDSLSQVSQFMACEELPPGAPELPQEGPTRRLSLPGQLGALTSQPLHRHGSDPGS

[2] = molecular target: Beta-2 adrenergic receptor (Homo sapiens, UniProt P07550); test: beta2AR agonists driving receptor internalization, dose response, cell-based, FAP fluorogen, flow cytometry, cherry pick 1 (AID 588763); assay type: functional
Chain of Beta-2 adrenergic receptor (P07550 whole entry): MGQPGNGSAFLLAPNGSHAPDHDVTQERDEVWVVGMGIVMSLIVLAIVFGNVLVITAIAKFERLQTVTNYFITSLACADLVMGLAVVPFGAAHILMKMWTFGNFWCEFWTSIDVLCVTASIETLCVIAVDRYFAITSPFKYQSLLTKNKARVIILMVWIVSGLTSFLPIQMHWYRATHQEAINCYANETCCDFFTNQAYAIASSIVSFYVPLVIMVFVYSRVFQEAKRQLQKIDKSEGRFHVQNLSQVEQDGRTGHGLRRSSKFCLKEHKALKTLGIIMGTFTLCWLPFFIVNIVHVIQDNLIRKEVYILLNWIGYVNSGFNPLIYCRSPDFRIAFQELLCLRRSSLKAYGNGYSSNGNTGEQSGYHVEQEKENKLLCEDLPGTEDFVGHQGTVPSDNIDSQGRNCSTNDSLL

[3] = inhibitors of cytokine-induced nitrite release, dose response, cell-based, Griess absorbance, INS-1E, dry powder, set 3 (AID 488870); assay type: functional; conditions: Rattus norvegicus
INS1 [4] = test: protection of INS-1E cells from cytokine death, dose response, ATP luminescence, dry powder (AID 488844); assay type: functional, cell-based; conditions: Rattus norvegicus
INS1 [5] = test: protection from cytokine-induced mitochondrial depolarization, dose response, cell-based, INS-1E, JC-1 fluorescence ratio, dry powder (AID 488931); assay type: functional; conditions: Rattus norvegicus
INS1 [6] = test: protection from cytokine-driven beta-cell apoptosis, dose response, JC-1 fluorescence, INS-1E, dry powder, set 2 (AID 488867); assay type: functional, cell-based; conditions: Rattus norvegicus
Escherichia coli = test: microbe, parasite or virus in culture
[7] = molecular target: 5-hydroxytryptamine receptor 1A (Homo sapiens, UniProt P08908); assay type: functional
Chain of 5-hydroxytryptamine receptor 1A (P08908 whole entry): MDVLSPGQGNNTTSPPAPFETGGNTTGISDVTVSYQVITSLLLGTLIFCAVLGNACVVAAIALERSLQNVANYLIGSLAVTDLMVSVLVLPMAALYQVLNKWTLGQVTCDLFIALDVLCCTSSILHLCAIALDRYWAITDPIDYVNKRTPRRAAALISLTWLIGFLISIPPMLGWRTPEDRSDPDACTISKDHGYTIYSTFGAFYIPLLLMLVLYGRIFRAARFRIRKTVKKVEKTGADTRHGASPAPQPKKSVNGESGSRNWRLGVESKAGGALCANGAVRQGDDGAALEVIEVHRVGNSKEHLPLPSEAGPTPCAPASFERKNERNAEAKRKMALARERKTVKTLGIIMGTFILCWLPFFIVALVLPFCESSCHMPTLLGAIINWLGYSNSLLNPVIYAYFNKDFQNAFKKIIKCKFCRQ

[8] = molecular target: Glycogen synthase kinase-3 beta (Homo sapiens, UniProt P49841); test: Inhibition of Human GSK-3 beta Activity Measured in Biochemical System Using Microfluidics - 2063-05_Inhibitor_Dose_DryPowder_Activity. [Related pubchem assays (depositor defined):AID2709]
Chain of Glycogen synthase kinase-3 beta (P49841 whole entry): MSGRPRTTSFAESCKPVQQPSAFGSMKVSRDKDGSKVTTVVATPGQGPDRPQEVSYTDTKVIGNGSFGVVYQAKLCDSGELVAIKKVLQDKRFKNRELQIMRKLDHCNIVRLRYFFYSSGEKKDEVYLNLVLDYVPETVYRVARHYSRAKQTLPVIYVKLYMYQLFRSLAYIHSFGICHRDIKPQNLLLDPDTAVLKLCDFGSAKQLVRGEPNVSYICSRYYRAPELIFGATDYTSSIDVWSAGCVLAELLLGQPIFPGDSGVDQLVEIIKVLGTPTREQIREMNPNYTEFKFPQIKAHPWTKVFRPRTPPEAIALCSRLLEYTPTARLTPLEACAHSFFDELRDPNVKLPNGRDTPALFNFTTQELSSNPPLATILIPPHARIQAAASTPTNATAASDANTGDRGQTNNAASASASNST

[9] = molecular target: Glycogen synthase kinase-3 alpha (Homo sapiens, UniProt P49840); test: Inhibition of Human GSK-3 alpha Activity Measured in Biochemical System Using Microfluidics - 2063-06_Inhibitor_Dose_DryPowder_Activity. [Related pubchem assays (depositor defined):AID2709]
Chain of Glycogen synthase kinase-3 alpha (P49840 whole entry): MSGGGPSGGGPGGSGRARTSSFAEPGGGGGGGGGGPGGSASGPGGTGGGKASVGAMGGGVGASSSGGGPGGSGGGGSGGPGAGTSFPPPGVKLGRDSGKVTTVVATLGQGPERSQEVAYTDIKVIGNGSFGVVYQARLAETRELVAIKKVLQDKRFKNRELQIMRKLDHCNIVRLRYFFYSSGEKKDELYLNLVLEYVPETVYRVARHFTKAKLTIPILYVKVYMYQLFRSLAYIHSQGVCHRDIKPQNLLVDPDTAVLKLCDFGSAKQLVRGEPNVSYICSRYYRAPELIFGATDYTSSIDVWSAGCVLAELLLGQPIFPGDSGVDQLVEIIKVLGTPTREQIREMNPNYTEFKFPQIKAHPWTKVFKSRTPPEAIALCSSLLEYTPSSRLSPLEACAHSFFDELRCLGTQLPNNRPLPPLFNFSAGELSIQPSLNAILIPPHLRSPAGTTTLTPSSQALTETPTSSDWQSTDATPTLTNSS

Structure (SMILES): ClC(Cl)=C(c1ccc(Cl)cc1)c1ccc(Cl)cc1 [DICHLORODIPHENYLDICHLOROETHYLENE]
- AC50 [1]: 15.8 µM (inconclusive) and 20 µM (inconclusive)

Structure (SMILES): Cc1cc(C)cc(C(=O)NC(CC(N)=O)c2ccc(N3CCN(c4ccccn4)CC3)c([N+](=O)[O-])c2)c1 (stereo not given)
- EC50 [2]: 0.714 µM (active)

Structure (SMILES): C[C@@H]1CN([C@@H](C)CO)C(=O)c2cccc(NC(=O)Nc3cccc4ccccc34)c2O[C@H]1CN(C)S(=O)(=O)c1ccc2ncsc2c1
- AC50 [3]: 34.6 µM (active)
- AC50 (INS1 [4]): 24.9 µM (active)
- AC50 (INS1 [5]): 176 µM (active)
- AC50 (INS1 [6]): 38.8 µM (active)

Structure (SMILES): Cn1c(-c2ccccc2)cnc1SCc1nc(O)c2ccccc2n1
- AC50 (Escherichia coli): 234 µM (active)
- EC50 [7]: > 50 µM (not active)

Structure (SMILES): O/N=C/c1cn(-c2ccccc2)nc1-c1cccnc1
- AC50 [8]: 0.246 µM (active)
- AC50 [9]: 0.828 µM (active)
